In ChEMBL document CHEMBL2086347, “Antitrypanosomal and cysteine protease inhibitory activities of alkyldiamine cryptolepine derivatives” (Bioorg Med Chem Lett, 2012):

Assays:
[1] = system: Trypanosoma brucei brucei; test: Antitrypanosomal activity against Trypanosoma brucei brucei; assay type: functional, organism-based
[2] = Inhibition of Trypanosoma cruzi cruzaine
[3] = biological target: T1, Cathepsin B-like cysteine protease (Trypanosoma brucei, UniProt Q6R7Z5); test: Inhibition of Trypanosoma brucei CatB
T1 sequence (Q6R7Z5 whole entry): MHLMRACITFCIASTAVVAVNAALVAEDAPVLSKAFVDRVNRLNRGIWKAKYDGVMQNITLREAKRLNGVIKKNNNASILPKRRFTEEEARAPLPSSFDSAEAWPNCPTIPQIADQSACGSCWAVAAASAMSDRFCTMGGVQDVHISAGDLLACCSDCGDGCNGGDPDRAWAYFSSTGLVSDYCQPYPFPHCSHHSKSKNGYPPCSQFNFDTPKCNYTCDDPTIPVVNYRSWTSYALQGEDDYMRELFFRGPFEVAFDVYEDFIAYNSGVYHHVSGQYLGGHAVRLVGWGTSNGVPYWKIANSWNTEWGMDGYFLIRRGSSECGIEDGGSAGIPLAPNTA

[4] = biological target: Rhodesain (Trypanosoma brucei rhodesiense, UniProt Q95PM0); test: Inhibition of Trypanosoma brucei rhodesiense rhodesain
Chain of Rhodesain (Q95PM0 whole entry): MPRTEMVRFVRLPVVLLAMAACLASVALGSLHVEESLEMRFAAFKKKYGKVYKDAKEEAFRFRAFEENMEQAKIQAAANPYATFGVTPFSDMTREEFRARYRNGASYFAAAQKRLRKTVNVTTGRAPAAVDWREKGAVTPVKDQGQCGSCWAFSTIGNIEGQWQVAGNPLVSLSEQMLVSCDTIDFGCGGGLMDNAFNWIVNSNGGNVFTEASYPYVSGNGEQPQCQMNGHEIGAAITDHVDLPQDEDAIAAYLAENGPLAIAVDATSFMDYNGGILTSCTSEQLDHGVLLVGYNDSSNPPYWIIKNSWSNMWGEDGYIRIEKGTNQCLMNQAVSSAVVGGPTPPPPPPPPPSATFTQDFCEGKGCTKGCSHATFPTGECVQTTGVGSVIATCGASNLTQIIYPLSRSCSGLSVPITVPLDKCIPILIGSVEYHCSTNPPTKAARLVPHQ

[5] = Cytotoxicity against african green monkey Vero cells; assay type: cell-based; settings: chlorocebus sabaeus
[6] = Selectivity index, ratio of CC50 for african green monkey Vero cells to IC50 for Trypanosoma brucei brucei; assay type: functional

SMILES | IC50 [1] [µM] | IC50 [2] [µM] | IC50 [3] [µM] | IC50 [4] [µM] | CC50 [5] [µM] | Ratio CC50/IC50 [6]
C[n+]1c2cc(Cl)ccc2c(NC2CCNCC2)c2[nH]c3ccccc3c21.[Cl-] | 0.3 | 1 | 59 | 0.5 | 4.4 | 147
C[n+]1c2cc(Cl)ccc2c(NC2CCNCC2)c2[nH]c3cc(Cl)ccc3c21.[Cl-] | < 0.006 | 1 | 43 | 0.5 | 0.8 | 133
CCN(CC)CCCCNc1c2ccccc2[n+](C)c2c1[nH]c1ccccc12.[Cl-] | 0.03 | 22 | 55 | 6 | 10 | 333
C[n+]1c2ccccc2c(Nc2ccc(N3CCCCC3)cc2)c2[nH]c3ccccc3c21.[Cl-] | 0.08 | 3 | 76 | 1 | 4.8 | 60
CC(C)CN1CCC(Nc2c3ccccc3[n+](C)c3c2[nH]c2ccccc23)CC1.[Cl-] | 0.05 | 8 | 26 | 2 | 5 | 100
C[n+]1c2ccccc2c(NC2CCN(Cc3ccccc3)CC2)c2[nH]c3ccccc3c21.[Cl-] | 0.03 | 8 | 32 | 4 | 2.2 | 73
C[n+]1c2ccccc2c(NC2CCN(Cc3ccccc3O)CC2)c2[nH]c3ccccc3c21.[Cl-] | 0.04 | 6 | 26 | 0.9 | 2.6 | 65
C[n+]1c2ccccc2c(Nc2ccccc2)c2[nH]c3ccccc3c21.[Cl-] | 0.3 | 15 | 99 | 7 | 0.6 | 2
CCN(CC)Cc1ccc(Nc2c3ccccc3[n+](C)c3c2[nH]c2ccccc23)cc1O.[Cl-] | 0.03 | 10 | 59 | 5 | 0.8 | 27
C[n+]1c2ccccc2c(Nc2cccnc2)c2[nH]c3ccccc3c21.[Cl-] | 0.3 | 5 | 59 | 2 | 2.6 | 8.6
CCN(CC)CCCNc1c2ccc(Cl)cc2[n+](C)c2c1[nH]c1ccccc12.[Cl-] | 0.02 | 2 | 64 | 0.5 | 1.3 | 65
CCN(CC)CCNc1c2ccccc2[n+](C)c2c1[nH]c1ccccc12.[Cl-] | 0.9 | 23 | 95 | 11 | 2.8 | 3.1
CN(C)CCCNc1c2ccccc2[n+](C)c2c1[nH]c1ccccc12.[Cl-] | 0.03 | 14 | 31 | 6 | 2.2 | 73
CCN(CC)CCCNc1c2ccccc2[n+](C)c2c1[nH]c1ccccc12.[Cl-] | 0.05 | 34 | 97 | 13 | 2.5 | 40
CC(C)NCCCNc1c2ccccc2[n+](C)c2c1[nH]c1ccccc12.[Cl-] | 0.1 | 42 | 62 | 26 | 3 | 30
CCN(CC)CCCC(C)Nc1c2ccccc2[n+](C)c2c1[nH]c1ccccc12.[Cl-] (stereo unspecified) | 0.4 | 27 | > 100 | 17 | 13 | 33
CC(CN(C)C)Nc1c2ccccc2[n+](C)c2c1[nH]c1ccccc12.[Cl-] (stereo unspecified) | 1 | 10 | > 100 | 5 | 3 | 3
C[n+]1c2ccccc2c(NC2CCNCC2)c2[nH]c3ccccc3c21.[Cl-] | 0.01 | 3 | – | 2 | 62 | 6200
CN(C)CC(C)(C)CNc1c2ccccc2[n+](C)c2c1[nH]c1ccccc12.[Cl-] | 0.3 | 26 | 62 | 19 | 3 | 10
C[n+]1c2ccccc2c(NCCCN2CCCCC2)c2[nH]c3ccccc3c21.[Cl-] | 0.06 | 11 | 60 | 5 | 2 | 33
CN(C)CCNc1c2ccccc2[n+](C)c2c1[nH]c1ccccc12.[Cl-] | 0.7 | 23 | 91 | 7 | 5.5 | 7.9
C[n+]1c2ccccc2cc2[n-]c3ccccc3c21.Cl [CRYPTOLEPINE HYDROCHLORIDE] | 2 | 28 | 64 | 23 | 1.1 | 0.6
